Among the data in ChEMBL document CHEMBL1154921, “Phenylpropanoyl esters from Horseweed (Conyza canadensis) and their inhibitory effects on catecholamine secretion” (J Nat Prod, 2010) are IC50 values, retold here.

Test [1] in a line: Inhibition of acetylcholine-induced catecholamine secretion in bovine chromaffin cells after 10 mins by HPLC coupled electrochemical detector. The class given is functional, cell-based. To be noted: Bos taurus.
Test [2] in a line: Inhibition of acetylcholine-induced calcium flux in calcium 4 reagent loaded bovine chromaffin cells at 1 to 100 uM. The class given is functional. To be noted: Bos taurus. In general terms: A change in cytosolic calcium serves as a functional read-out for many receptors and channels.

What is called IC50 is the concentration that gives 50% inhibition. Regarding `COC(=O)[C@]12C[C@@H](OC(=O)/C=C/c3ccc(O)c(OC)c3)[C@@H](O)[C@H](O1)[C@@H](COC(=O)/C=C/c1ccc(O)c(O)c1)O2` (relative stereo), the IC50 in test [1] is 94.7 µM; in test [2], 59.8 µM.
